Test results published in patent US20180141965A1, “AUTOTAXIN INHIBITORS AND USES THEREOF” (NATIONAL AND KAPODISTRIAN UNIVERSITY OF ATHENS, priority 2015, published 2018).
Read-outs that look alike come from different tables or passages of the source. Values belong to the compound of their own block, whether it stands above or below them.

Biological target: T1, recombinant ATX (mouse ATX-β) (Mus musculus, UniProt Q9R1E6)
T1 construct: purchased Sino Biological
Assay: Inhibition of ATX, Amplex Red PLD assay kit
Format: biochemical
Details: 2 nM recombinant ATX, mean of two independent experiments
Protocol: The in vitro activity of the synthetic inhibitors was studied using the Amplex™ Red PLD assay kit (Molecular Probes, Interchim, Montlucon, France). Inhibitors were dissolved in DMSO (stock solution 3 mM) and appropriate dilutions were made in DMSO. […] The IC50 values were determined using the mean values obtained from two independent experiments. The IC50 values were determined graphically using the sigmoid dose-response fitting method (PrismH software) by the equation f=y0+a/(1+exp(−(x−x0)/b)) given by SigmaPlot 11.0.

[1] = hydroxamates, substrate 50 μM LPC 16:0, read-out: IC50 (μM) 16:0 LPC
[2] = thioamides/phosphonates/phosphinates, substrate 50 μM LPC 16:0, read-out: IC50 (μM) 16:0 LPC
[3] = thioamides/phosphonates/phosphinates, substrate 50 μM LPC 18:0, read-out: IC50 (μM) 18:0 LPC
[4] = hydroxamates, substrate 50 μM LPC 18:0, read-out: IC50 (μM) 18:0 LPC
[5] = thioamides/phosphonates/phosphinates, substrate 50 μM LPC 18:1, read-out: IC50 (μM) 18:1 LPC

Compound: O=C(Cc1ccc(NC(=O)CCCCC(=O)Nc2ccccc2)cc1)NO [GK285]
- IC50 [1]: 1.2 µM

- IC50 [2]: 3 µM
- IC50 [3]: 0.7 µM
Compound: CCCCCCCCCCCCCC(=S)NCCCC[PH](=O)O [GK312]

- IC50 [2]: 0.5 µM
- IC50 [3]: 1 µM
Compound: CCCCCCCCCCCCCC(=S)NCCCC[PH](=O)O [GK325]

- IC50 [2]: 0.4 µM
- IC50 [3]: 4 µM
Compound: CCCCCCCCCCCCCC(=O)Nc1ccc(CC[PH](=O)O)cc1 [GK327]

Compound: CCCCCCCCCCCCCC(=O)Nc1ccc(CC(=O)NO)cc1 [GK332]
- IC50 [1]: 1 µM
- IC50 [4]: 0.2 µM

Compound: O=C(Cc1ccc(NC(=O)CCCCCCc2ccccc2)cc1)NO [GK333]
- IC50 [1]: 0.7 µM
- IC50 [4]: 2 µM

- IC50 [1]: 0.6 µM
Compound: Nc1ccccc1NC(=O)Cc1ccc(NC(=O)CCCCC(=O)Nc2ccccc2)cc1 [GK335]

- IC50 [1]: 0.4 µM
- IC50 [4]: 5 µM
Compound: COC(=O)[C@@H](CCC(=O)NO)NC(=O)CCCCC(=O)Nc1ccccc1 [GK337]

Compound: O=C(Cc1ccc(NC(=O)CCCCNC(=O)c2ccccc2)cc1)NO [GK340]
- IC50 [1]: 1 µM
- IC50 [4]: 0.2 µM

Compound: CCCCOc1ccc(CCCCC(=O)Nc2ccc(CC(=O)NO)cc2)cc1 [GK341]
- IC50 [1]: 4 µM

Compound: CCCCCCCCc1ccc(OCC(=O)Nc2ccc(CC(=O)NO)cc2)cc1 [GK344]
- IC50 [1]: 1 µM
- IC50 [4]: 0.3 µM

Compound: CCCCCCCCc1ccc(CCC(=O)Nc2ccc(CC(=O)NO)cc2)cc1 [GK345]
- IC50 [1]: 5 µM

Compound: O=C(Cc1ccc(NC(=O)CCCCCCC(=O)Nc2ccccc2)cc1)NO [GK346]
- IC50 [1]: 2 µM

- IC50 [2]: 0.198 µM
- IC50 [5]: 0.098 µM
Compound: CCCCCCCCCCCCCC(=S)NCCCCC(=S)NCC [GK377]

Compound: CCCCCCCCCCCCCC(=S)NCCCCP(=O)(O)OCC [GK378]
- IC50 [2]: 0.12 µM
- IC50 [5]: 0.05 µM

Compound: COc1ccc(C(=O)NCCCCC(=O)Nc2ccc(CC(=O)NO)cc2)cc1 [GK381]
- IC50 [1]: 1 µM

- IC50 [1]: 4 µM
Compound: COC(=O)[C@@H](CCC(=O)NO)NC(=O)CCCCC(=O)Nc1ccc(OC)cc1 [GK382]

- IC50 [1]: 0.05 µM
Compound: COC(=O)[C@@H](CCCC(=O)NO)NC(=O)CCCCC(=O)Nc1ccccc1 [GK400]

Compound: CCCC[C@@H](CCCC(=O)NO)NC(=O)CCCCC(=O)Nc1ccccc1 [GK442]
- IC50 [1]: 0.06 µM

- IC50 [2]: 0.06 µM
Compound: CCCCCCCCCCCCNC(=S)NCCCCC(=S)NCC [GK446]

- IC50 [1]: 0.8 µM
Compound: CCCC[C@@H](CCCC(=O)NO)NC(=S)NCCCC(=O)Nc1ccccc1 [GK471]
